# From patent US20250154169A1, “COMPOUNDS AND METHODS FOR MODULATING SPLICING” (REMIX THERAPEUTICS INC., priority 2021, published 2025)
# Like-named read-outs stand apart in the source and are kept apart here.
# Columns and labels:
# Format in all cases: cell-based, human
# [1] = system: HTT mRNA; experiment: Splicing RT-qPCR assay, HTT canonical (CJ) and alternative (AJ) junction mRNA; settings: Homo sapiens, A673 or K562 cells, 24 hours compound treatment; for IC50: 24 h, read-out: HTT CJ (IC50, decrease in canonical junction mRNA); for AC50: read-out: HTT AJ (AC50, increase in alternative junction mRNA)
# Outline: (§1)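 Canonical (CJ) and alternative-exon (AJ) junction mRNAs quantified by one-step RT-qPCR in cell lysates, normalized to housekeeping PPIA for A673 and GAPDH or GUSB for K562. Cells were exposed 24 h at 37 °C to 11-point 3-fold compound series from 10 uM final, with DMSO at or below 0.25%.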
# [2] = system: SMN2 mRNA; experiment: Splicing RT-qPCR gene panel, SMN2 canonical junction (CJ) mRNA; settings: Homo sapiens, Tables 4A/4B, read-out: SMN2 (IC50, decrease in CJ mRNA, gene panel)
# Outline: (§2)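 A673/K562, 24 h cpd, 11-pt 3-fold from 10 uM, DMSO ≤0.25%. Lysis, direct RT-qPCR of CJ isoform, ≥duplicate. GAPDH/GUSB/PPIA norm, ΔΔCt vs DMSO → RQ → % response.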
# [3] = system: MYB mRNA; experiment: Splicing RT-qPCR assay, MYB canonical (CJ) and alternative (AJ) junction mRNA; settings: Homo sapiens; for AC50: read-out: MYB AJ (AC50, increase in alternative junction mRNA)
# Outline: as §1
# [4] = system: HTT mRNA; experiment: Splicing RT-qPCR gene panel, HTT canonical junction (CJ) mRNA; settings: Homo sapiens, Tables 4A/4B, read-out: HTT (IC50, decrease in CJ mRNA, gene panel)
# Outline: as §2
# [5] = system: Target C mRNA; experiment: Splicing RT-qPCR gene panel, Target C canonical junction (CJ) mRNA; settings: Tables 4A/4B, read-out: Target C (IC50, decrease in CJ mRNA, gene panel)
# Outline: as §2
# [6] = 24 h, A673 or K562 cells, 24 hours compound treatment, RT-qPCR
# [7] = 24 h, A673 or K562 cells, 24 hours compound treatment, RT-qPCR, read-out: MYB CJ (IC50, decrease in canonical junction mRNA)
# [8] = Tables 4A/4B, canonical junction qPCR panel, read-out: MYB (IC50, decrease in CJ mRNA, gene panel)
SMILES,IC50 [1],AC50 [1],IC50 [2],"AC50 [3, 6]","IC50 [3, 7]","IC50 [3, 8]",IC50 [4],IC50 ([5]; Homo sapiens),IC50 [5]
Cc1cn2cc(NC(=O)c3ccc(N4CCC(NC(C)(C)C)C4)c4cn(C)nc34)cc(F)c2n1 (centres unmarked) [Compound 249],> 10000 nM,> 10000 nM,< 100 nM,100 to 1000 nM,100 to 1000 nM,100 to 1000 nM,> 10000 nM,> 10000 nM,–
Cc1cn2nc(NC(=O)c3ccc(N4CCNCC4)c4cn(C)nc34)nc2c(C)n1 [Compound 253],> 10000 nM,> 10000 nM,1000 to 10000 nM,> 10000 nM,> 10000 nM,> 10000 nM,> 10000 nM,> 10000 nM,–
Cc1cn2cc(NC(=O)c3ccc(N4C[C@H]5CC[C@@H](C4)N5)c4cc(C)oc34)cc(F)c2n1 [Compound 255],1000 to 10000 nM,1000 to 10000 nM,< 100 nM,< 100 nM,100 to 1000 nM,100 to 1000 nM,1000 to 10000 nM,> 10000 nM,–
Cc1cn2cc(NC(=O)c3ccc(C4CCN(C)CC4)c4cc(C)oc34)cc(F)c2n1 [Compound 256],1000 to 10000 nM,1000 to 10000 nM,< 100 nM,100 to 1000 nM,100 to 1000 nM,100 to 1000 nM,1000 to 10000 nM,> 10000 nM,–
CCN1CCC(c2ccc(C(=O)Nc3cc(F)c4nc(C)cn4c3)c3oc(C)cc23)CC1 [Compound 257],1000 to 10000 nM,1000 to 10000 nM,< 100 nM,100 to 1000 nM,100 to 1000 nM,100 to 1000 nM,1000 to 10000 nM,> 10000 nM,–
Cc1cn2cc(NC(=O)c3ccc(N4CCC(N(C)C)C4)c4cn(C)nc34)cc(F)c2n1 (centres unmarked) [Compound 258],1000 to 10000 nM,100 to 1000 nM,< 100 nM,< 100 nM,< 100 nM,< 100 nM,1000 to 10000 nM,1000 to 10000 nM,–
Cc1cn2cc(NC(=O)c3ccc(N4CCC(NC(C)(C)C)CC4)c4cn(C)nc34)cc(F)c2n1 [Compound 259],1000 to 10000 nM,1000 to 10000 nM,< 100 nM,1000 to 10000 nM,100 to 1000 nM,100 to 1000 nM,1000 to 10000 nM,1000 to 10000 nM,–
Cc1cn2cc(NC(=O)c3ccc(N4C[C@H]5CC[C@@H](C4)N5)c4cn(C)nc34)cc(F)c2n1 [Compound 260],100 to 1000 nM,100 to 1000 nM,1000 to 10000 nM,< 100 nM,< 100 nM,< 100 nM,100 to 1000 nM,1000 to 10000 nM,–
Cc1cc2c(N3CCNCC3)ccc(C(=O)Nc3ccc4cn(C)nc4c3)c2o1 [Compound 261],> 10000 nM,> 10000 nM,1000 to 10000 nM,> 10000 nM,> 10000 nM,> 10000 nM,> 10000 nM,> 10000 nM,–
Cc1cn2cc(NC(=O)c3ccc(N4CCNCC4)c4cc(C)oc34)c(C)cc2n1 [Compound 262],1000 to 10000 nM,1000 to 10000 nM,< 100 nM,100 to 1000 nM,100 to 1000 nM,100 to 1000 nM,1000 to 10000 nM,> 10000 nM,–
Cc1cn2cc(NC(=O)c3ccc(N4CCNCC4)c4cc(C)oc34)ncc2n1 [Compound 263],1000 to 10000 nM,1000 to 10000 nM,< 100 nM,100 to 1000 nM,100 to 1000 nM,100 to 1000 nM,1000 to 10000 nM,1000 to 10000 nM,–
Cc1cn2nc(NC(=O)c3ccc(N4CCNCC4)c4cc(C)oc34)nc2c(C)n1 [Compound 264],> 10000 nM,> 10000 nM,> 10000 nM,> 10000 nM,> 10000 nM,> 10000 nM,> 10000 nM,> 10000 nM,–
Cc1cn2nc(NC(=O)c3ccc(N4CCNCC4)c4cc(C)oc34)cc2c(C)n1 [Compound 265],> 10000 nM,> 10000 nM,1000 to 10000 nM,> 10000 nM,> 10000 nM,> 10000 nM,> 10000 nM,> 10000 nM,–
Cc1cn2cc(NC(=O)c3ccc(N4CCNCC4)c4cc(C)oc34)cc(Cl)c2n1 [Compound 266],1000 to 10000 nM,1000 to 10000 nM,< 100 nM,< 100 nM,100 to 1000 nM,100 to 1000 nM,1000 to 10000 nM,> 10000 nM,–
Cc1cn2cc(NC(=O)c3ccc(N4CCNCC4)c4cc(C)oc34)cc(C)c2n1 [Compound 267],> 10000 nM,1000 to 10000 nM,< 100 nM,100 to 1000 nM,1000 to 10000 nM,1000 to 10000 nM,> 10000 nM,> 10000 nM,–
Cc1cc2c(N3CCNCC3)ccc(C(=O)Nc3cn[nH]c3)c2o1 [Compound 268],> 10000 nM,> 10000 nM,> 10000 nM,> 10000 nM,> 10000 nM,> 10000 nM,> 10000 nM,> 10000 nM,–
Cc1cn2cc(NC(=O)c3ccc(N4CCNCC4)c4cn(C)nc34)cc(Cl)c2n1 [Compound 269],100 to 1000 nM,100 to 1000 nM,< 100 nM,< 100 nM,< 100 nM,< 100 nM,100 to 1000 nM,–,1000 to 10000 nM
Cn1cc2c(N3CCNCC3)ccc(C(=O)Nc3cn[nH]c3)c2n1 [Compound 270],> 10000 nM,> 10000 nM,> 10000 nM,> 10000 nM,> 10000 nM,> 10000 nM,> 10000 nM,> 10000 nM,–
Cc1cn2cc(NC(=O)c3ccc(C4CC(C)(C)NC(C)(C)C4)c4cc(C)oc34)cc(F)c2n1 [Compound 271],> 10000 nM,> 10000 nM,100 to 1000 nM,1000 to 10000 nM,1000 to 10000 nM,1000 to 10000 nM,> 10000 nM,> 10000 nM,–
Cc1cn2cc(NC(=O)c3ccc(N4CCC(N5CCCC5)C4)c4cn(C)nc34)cc(F)c2n1 (centres unmarked) [Compound 272],100 to 1000 nM,100 to 1000 nM,< 100 nM,< 100 nM,100 to 1000 nM,100 to 1000 nM,100 to 1000 nM,100 to 1000 nM,–
Cc1cn2cc(NC(=O)c3ccc(N4CCNCC4)c4cn(C)nc34)nc2c(C)n1 [Compound 273],> 10000 nM,> 10000 nM,< 100 nM,100 to 1000 nM,100 to 1000 nM,100 to 1000 nM,> 10000 nM,> 10000 nM,–
Cc1cn2cc(NC(=O)c3ccc(N4CC(C)(C)NC(C)(C)C4)c4cn(C)nc34)cc(F)c2n1 [Compound 274],1000 to 10000 nM,> 10000 nM,< 100 nM,100 to 1000 nM,100 to 1000 nM,100 to 1000 nM,1000 to 10000 nM,> 10000 nM,–
"Cc1cn2cc(NC(=O)c3ccc(N4CCNCC4)c4cn(C)nc34)cc(C(F)(F)F)c2n1 [Compound 275, 2-methyl-N-[2-methyl-8-(trifluoromethyl)imidazo[1,2-a]pyridin-6-yl]-4-(piperazin-1-yl) indazole-7-carboxamide]",1000 to 10000 nM,1000 to 10000 nM,< 100 nM,< 100 nM,100 to 1000 nM,100 to 1000 nM,1000 to 10000 nM,> 10000 nM,–
Cc1cn2cc(NC(=O)c3ccc(N4CCC(N(C)C)C4)c4cn(C)nc34)cc(Cl)c2n1 (centres unmarked) [Compound 278],1000 to 10000 nM,1000 to 10000 nM,< 100 nM,< 100 nM,100 to 1000 nM,100 to 1000 nM,1000 to 10000 nM,1000 to 10000 nM,–
Cc1cn2cc(-c3ccc(C(=O)NC4CCNCC4)c4nn(C)cc34)cc(F)c2n1 [Compound 280],1000 to 10000 nM,1000 to 10000 nM,1000 to 10000 nM,1000 to 10000 nM,> 10000 nM,> 10000 nM,1000 to 10000 nM,> 10000 nM,–
Cc1cn2nc(-c3ccc(C(=O)NC4CCNCC4)c4nn(C)cc34)cc(C)c2n1 [Compound 281],1000 to 10000 nM,1000 to 10000 nM,100 to 1000 nM,1000 to 10000 nM,1000 to 10000 nM,1000 to 10000 nM,1000 to 10000 nM,1000 to 10000 nM,–
Cc1cn2nc(-c3ccc(C(=O)NC4CCNCC4)c4oc(C)cc34)cc(C)c2n1 [Compound 282],1000 to 10000 nM,1000 to 10000 nM,100 to 1000 nM,> 10000 nM,> 10000 nM,> 10000 nM,1000 to 10000 nM,> 10000 nM,–
Cc1cn2nc(-c3ccc(C(=O)NC4CCNCC4)c4oc(C)cc34)cc(F)c2n1 [Compound 283],1000 to 10000 nM,> 10000 nM,100 to 1000 nM,> 10000 nM,1000 to 10000 nM,1000 to 10000 nM,1000 to 10000 nM,> 10000 nM,–
